#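 Here, GI50 denotes the concentration required for 50% inhibition of growth. TGI: total growth inhibition.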
# Legend:
# Test in all cases: inhibition of tumour cell growth, NCI panel, 384-well format
# A498 renal = tested on: A498 renal
# A549 NSCLC = tested on: A549 NSCLC
# ACHN renal = tested on: ACHN renal
# BT-549 breast = tested on: BT-549 breast
# CAKI-1 renal = tested on: CAKI-1 renal
# COLO 205 colon = tested on: COLO 205 colon
# DU-145 prostate = tested on: DU-145 prostate
# EKVX NSCLC = tested on: EKVX NSCLC
# HCC-2998 colon = tested on: HCC-2998 colon
# HCT-116 colon = tested on: HCT-116 colon
# HCT-15 colon = tested on: HCT-15 colon
# HL-60(TB) leukemia = tested on: HL-60(TB) leukemia
# HOP-62 NSCLC = tested on: HOP-62 NSCLC
# HOP-92 NSCLC = tested on: HOP-92 NSCLC
# HS 578T breast = tested on: HS 578T breast
# HT29 colon = tested on: HT29 colon
# IGROV1 ovarian = tested on: IGROV1 ovarian
# KM12 colon = tested on: KM12 colon
# LOX IMVI melanoma = tested on: LOX IMVI melanoma
# M14 melanoma = tested on: M14 melanoma
# MALME-3M melanoma = tested on: MALME-3M melanoma
# MCF7 breast = tested on: MCF7 breast
# MDA-MB-231 breast = tested on: MDA-MB-231 breast
# MDA-MB-435 melanoma = tested on: MDA-MB-435 melanoma
# MDA-MB-468 breast = tested on: MDA-MB-468 breast
# MOLT-4 leukemia = tested on: MOLT-4 leukemia
# NCI-H226 lung = tested on: NCI-H226 lung
# NCI-H23 lung = tested on: NCI-H23 lung
# NCI-H322M lung = tested on: NCI-H322M lung
# NCI-H460 NSCLC = tested on: NCI-H460 NSCLC
# NCI-H522 lung = tested on: NCI-H522 lung
# NCI/ADR-RES ovarian = tested on: NCI/ADR-RES ovarian
# OVCAR-3 ovarian = tested on: OVCAR-3 ovarian
# OVCAR-4 ovarian = tested on: OVCAR-4 ovarian
# OVCAR-5 ovarian = tested on: OVCAR-5 ovarian
# OVCAR-8 ovarian = tested on: OVCAR-8 ovarian
# PC-3 prostate = tested on: PC-3 prostate
# RPMI-8226 leukemia = tested on: RPMI-8226 leukemia
# RXF 393 renal = tested on: RXF 393 renal
# SF-268 CNS = tested on: SF-268 CNS
# SF-295 CNS = tested on: SF-295 CNS
# SF-539 CNS = tested on: SF-539 CNS
# SK-MEL-28 melanoma = tested on: SK-MEL-28 melanoma
# SK-MEL-5 melanoma = tested on: SK-MEL-5 melanoma
# SK-OV-3 ovarian = tested on: SK-OV-3 ovarian
# SN12C renal = tested on: SN12C renal
# SNB-19 CNS = tested on: SNB-19 CNS
# SNB-75 CNS = tested on: SNB-75 CNS
# SR leukemia = tested on: SR leukemia
# T-47D breast = tested on: T-47D breast
# TK-10 renal = tested on: TK-10 renal
# U251 glioblastoma = tested on: U251 glioblastoma
# UACC-257 melanoma = tested on: UACC-257 melanoma
# UACC-62 melanoma = tested on: UACC-62 melanoma
smiles,measurement,setting,value
COc1ccc2c(OCc3nnc4ccc(-c5ccccc5)nn34)ccnc2c1,GI50,A498 renal,> 100 µM
same,TGI,A498 renal,> 100 µM
same,GI50,A549 NSCLC,> 100 µM
same,TGI,A549 NSCLC,> 100 µM
same,GI50,ACHN renal,42.2 µM
same,TGI,ACHN renal,> 100 µM
same,GI50,BT-549 breast,> 100 µM
same,TGI,BT-549 breast,> 100 µM
same,GI50,CAKI-1 renal,> 100 µM
same,TGI,CAKI-1 renal,> 100 µM
same,GI50,COLO 205 colon,> 100 µM
same,TGI,COLO 205 colon,> 100 µM
same,GI50,DU-145 prostate,> 100 µM
same,TGI,DU-145 prostate,> 100 µM
same,GI50,EKVX NSCLC,> 100 µM
same,TGI,EKVX NSCLC,> 100 µM
same,GI50,HCC-2998 colon,> 100 µM
same,TGI,HCC-2998 colon,> 100 µM
same,GI50,HCT-116 colon,> 100 µM
same,TGI,HCT-116 colon,> 100 µM
same,GI50,HCT-15 colon,> 100 µM
same,TGI,HCT-15 colon,> 100 µM
same,GI50,HL-60(TB) leukemia,> 100 µM
same,TGI,HL-60(TB) leukemia,> 100 µM
same,GI50,HOP-62 NSCLC,60.5 µM
same,TGI,HOP-62 NSCLC,> 100 µM
same,GI50,HOP-92 NSCLC,> 100 µM
same,TGI,HOP-92 NSCLC,> 100 µM
same,GI50,HS 578T breast,> 100 µM
same,TGI,HS 578T breast,> 100 µM
same,GI50,HT29 colon,> 100 µM
same,TGI,HT29 colon,> 100 µM
same,GI50,IGROV1 ovarian,> 100 µM
same,TGI,IGROV1 ovarian,> 100 µM
same,GI50,KM12 colon,> 100 µM
same,TGI,KM12 colon,> 100 µM
same,GI50,LOX IMVI melanoma,> 100 µM
same,TGI,LOX IMVI melanoma,> 100 µM
same,GI50,M14 melanoma,> 100 µM
same,TGI,M14 melanoma,> 100 µM
same,GI50,MALME-3M melanoma,> 100 µM
same,TGI,MALME-3M melanoma,> 100 µM
same,GI50,MCF7 breast,> 100 µM
same,TGI,MCF7 breast,> 100 µM
same,GI50,MDA-MB-231 breast,> 100 µM
same,TGI,MDA-MB-231 breast,> 100 µM
same,GI50,MDA-MB-435 melanoma,> 100 µM
same,TGI,MDA-MB-435 melanoma,> 100 µM
same,GI50,MDA-MB-468 breast,> 100 µM
same,TGI,MDA-MB-468 breast,> 100 µM
same,GI50,MOLT-4 leukemia,> 100 µM
same,TGI,MOLT-4 leukemia,> 100 µM
same,GI50,NCI-H226 lung,> 100 µM
same,TGI,NCI-H226 lung,> 100 µM
same,GI50,NCI-H23 lung,> 100 µM
same,TGI,NCI-H23 lung,> 100 µM
same,GI50,NCI-H322M lung,> 100 µM
same,TGI,NCI-H322M lung,> 100 µM
same,GI50,NCI-H460 NSCLC,73.8 µM
same,TGI,NCI-H460 NSCLC,> 100 µM
same,GI50,NCI-H522 lung,44.6 µM
same,TGI,NCI-H522 lung,> 100 µM
same,GI50,NCI/ADR-RES ovarian,> 100 µM
same,TGI,NCI/ADR-RES ovarian,> 100 µM
same,GI50,OVCAR-3 ovarian,29.8 µM
same,TGI,OVCAR-3 ovarian,94.6 µM
same,GI50,OVCAR-4 ovarian,28.9 µM
same,TGI,OVCAR-4 ovarian,> 100 µM
same,GI50,OVCAR-5 ovarian,> 100 µM
same,TGI,OVCAR-5 ovarian,> 100 µM
same,GI50,OVCAR-8 ovarian,> 100 µM
same,TGI,OVCAR-8 ovarian,> 100 µM
same,GI50,PC-3 prostate,> 100 µM
same,TGI,PC-3 prostate,> 100 µM
same,GI50,RPMI-8226 leukemia,> 100 µM
same,TGI,RPMI-8226 leukemia,> 100 µM
same,GI50,RXF 393 renal,> 100 µM
same,TGI,RXF 393 renal,> 100 µM
same,GI50,SF-268 CNS,> 100 µM
same,TGI,SF-268 CNS,> 100 µM
same,GI50,SF-295 CNS,> 100 µM
same,TGI,SF-295 CNS,> 100 µM
same,GI50,SF-539 CNS,> 100 µM
same,TGI,SF-539 CNS,> 100 µM
same,GI50,SK-MEL-28 melanoma,> 100 µM
same,TGI,SK-MEL-28 melanoma,> 100 µM
same,GI50,SK-MEL-5 melanoma,> 100 µM
same,TGI,SK-MEL-5 melanoma,> 100 µM
same,GI50,SK-OV-3 ovarian,> 100 µM
same,TGI,SK-OV-3 ovarian,> 100 µM
same,GI50,SN12C renal,63 µM
same,TGI,SN12C renal,> 100 µM
same,GI50,SNB-19 CNS,50.1 µM
same,TGI,SNB-19 CNS,> 100 µM
same,GI50,SNB-75 CNS,> 100 µM
same,TGI,SNB-75 CNS,> 100 µM
same,GI50,SR leukemia,> 100 µM
same,TGI,SR leukemia,> 100 µM
same,GI50,T-47D breast,> 100 µM
same,TGI,T-47D breast,> 100 µM
same,GI50,TK-10 renal,48.7 µM
same,TGI,TK-10 renal,> 100 µM
same,GI50,U251 glioblastoma,> 100 µM
same,TGI,U251 glioblastoma,> 100 µM
same,GI50,UACC-257 melanoma,> 100 µM
same,TGI,UACC-257 melanoma,> 100 µM
same,GI50,UACC-62 melanoma,> 100 µM
same,TGI,UACC-62 melanoma,> 100 µM

# Reference: PubChem BioAssay (NCI)
